One assay concerns L540. As to the kind of experiment: Mitotic index, L540. In kind it is cell-based, human. As for the experimental part: The mitotic index and chromosomal aberrations for each of the cell lines were evaluated after treatment with either 20 μmol or 10 μmol EDO-S101 in DMSO. Each cell line was cultured at 37° C. in the presence of RPMI 1640 supplemented with 10% FCS and antibiotics. Colcemid (0.1 ug/ml) was added 2 h before harvesting and slides with chromosomes in metaphase were prepared following the standard methanol/acetic acid (3/1, v/v) procedure. The slides were stored at −20° C. until use.
FISH was performed using a combination of standard procedures from the recommended protocols for chromosome analysis, following telomere and centromere staining, using PNA probes. In all, 100 metaphases were scored per in vitro dose exposure.
The mitotic index was determined by measurement of the sum of all cells in prophase, metaphase, anaphase and telophase divided by the total number of cells.

In assay [1] the test system is Hodgkin lymphoma cell lines. As to the kind of experiment: Proliferation and IC50 determination (MTS assay; manual counting using Trypan blue). In kind it is cell-based. The following applies: Homo sapiens, 48 h, range over all cell lines. Here is the method:
Nine Hodgkin lymphoma cell lines were cultured at 37° C. in 24-well plates at a concentration of 0.3×10^6 cells/ml in the presence of EDO-S101 at concentrations of 0, 5, 10, 15 and 20 μmol in DMSO for 24 hours and 48 hours and the proliferation of the cells was determined using a non-radioactive cell proliferation MTS assay with CellTiter 96® Aqueous One solution reagent obtained from Promega® (this is a colorimetric method for determining the number of viable cells in a proliferation comprising a tetrazolium compound [3-(4,5-dimethylthiazol-2-yl)-5-(3-carboxymethoxyphenyl)-2-(4-sulfophenyl)-2H-tetrazolium, inner salt; MIS). The proliferation was plotted against concentration of EDO-S101 for treatment after both 24 and 48 hours.
(Formazan colour is commonly taken as a measure of viable cells.)

The subject of assay [2] is L428 cells. As to the kind of experiment: Orbital tumour mass at injection site in xenografted NSG mice. The assay is classed as in vivo. The conditions noted are these: after EDO-S101 injection. The text has this:
Immunodeficient NOD-SCID-gammac−/− (NSG) mice aged 5 to 6 weeks were purchased from Charles River (NOD.Cg-Prkdcscid II2rgtm1Wjl/SzJ). The mice arrived two weeks before the beginning of the experiments and were housed in micro-isolator cages during the entire course of the study. Immediately prior to the injection of Hodgkin lymphoma cells, mice were exposed to 3 Gy gamma irradiation using an IBL637 ^137Cs irradiator at a dose rate of 0.61 Gy/min. From 10^3 to 10^6 cells, either from the original cell lines or following amplification, were injected intravenously via the retro-orbital sinus. The mice were sacrificed by cervical dislocation and different organs were analysed and tumoural infiltration examined using multiple techniques.
Two independent experiments were performed to investigate the dose-effect of EDO-S101 in NSG mice eight weeks after xenografting with L428 cells as in Example 8. The aim of the protocol shown in FIG. 8B was to evaluate the effect of sequential treatment with a moderate dose of 60 mg/kg given at an interval of three weeks.
Some mice developed an orbital tumour mass at the site of the injection. […] In one mouse only that was treated with two doses of 60 mg/kg of EDO-S101, a regression of the orbital tumour was initially observed followed by re-establishment of the orbital mass 3 weeks later. […]

Another assay deals with CD14 cells. Description: CD14-positive cells by flow cytometry in xenografted NSG mice. In kind it is in vivo. Here is the method: Cells were gated to exclude apoptotic or necrotic cells and sorted into CD30−/CD15− and CD30+ and CD15+/CD30+ fractions by gating on the lowest and highest 5% PE-expressing cells, respectively. Following sorting, the CD30−/CD15− cell fractions were analyzed using a FACScan flow cytometer (Becton Dickinson) and found to be more than 98% pure. For phenotypic analyses of cell lines or sorted cells, cells were prepared as described, and then stained with mouse anti-human CD30-phycoerthrin (PE), CD15—fluorescein isothyocyanate (FITC), CD14-APC-cyanine 7 (Cy7) and CD45-APC (all antibodies from BD PharMingen, San Diego, CA). […] Cells were subsequently analysed using a FACS LSRII (Becton Dickinson, Franklin Lakes, NJ). […]
Novel biomarkers CD68 and CD14 which are expressed by tumour associated macrophages and myeloid derived suppressor cells respectively in the microenvironment have recently been reported to affect the prognosis of Hodgkin lymphoma (Haematologica, 2011 February; 96(2): 186-189). The presence of the CD14-positive cells following administration of a single dose of EDO-S101 (60 mg/kg or 80 mg/kg) and after two administrations of EDO-S101 at 60 mg/kg was evaluated using flow cytometry with anti CD14 antibodies.
A general note: A flow cytometer gives signals particle by particle.

The subject of assay [3] is L428 cells. Description: Cytogenetic analysis of cells from xenografted mice. The assay is classed as in vivo, NSG mice. The following applies: different doses, including a single dose of 60 mg/kg. As for the experimental part:
Separated cells were cultured in the presence of RPMI 1640 supplemented with 10% Fetal Calf Serum (FCS) and antibiotics, colcemid (0.1 μg/ml) added 2 h before harvesting, and the slides with metaphase chromosomes prepared following the standard methanol/acetic acid (3/1, v/v) procedure.
Four new cell lines were generated after one month of in vitro culture following 24 hour of exposure to EDO-S101. Fluorescence in situ hybridysation (FISH) was performed using a combination of standard procedures from the recommended protocols for chromosomal analysis, following telomere and centromere staining, using peptide nucleic acid (PNA) probes in order to detect unstable chromosomal aberrations and to delimit the chromosome territory. M-FISH was performed using multi-FISH probes (Metasystems GmbH, Altlussheim, Germany), according to the manufacturer's recommendations on the same slide. Images of hybridized metaphases were captured using a charge coupled device camera (Zeiss, Thornwood, NY) coupled to a Zeiss Axioplan microscope and processed using ISIS software (Metasystems).
The ocular tumour masses were harvested, as well as cells which infiltrated the liver. Five new cell lines were established from ocular tumours and the livers of both control mice (PBS or vehicle). […]

The test system of another assay is L1236. Description: Combination with Brentuximab Vedotin, % survival, L1236. The assay is classed as cell-based, human. The conditions noted are these: EDO-S101 1.56 μM (sub-IC50) with Brentuximab Vedotin 3.12 μg/ml. Here is the method: 1.56 μM of EDO-S101 was administered to two Hodgkin lymphoma cell lines, the bendamustine naïve cell line L1236 and the bendamustine resistant cell line R100. In a second experiment, Brentuximab Vedotin was administered at a concentration of 3.12 μg/ml to the L1236 cell line and at a concentration of 0.39 μg/ml to the R100 cell line. Finally, in a third experiment EDO-S101 and Brentuximab Vedotin were administered in combination to each of the two cell lines at the same concentrations that they were administered in the monotherapy experiments.

As usually defined, the IC50 is the concentration that inhibits the measured activity by half. The low end stands for inhibition by little substance, the high end for a need for much substance. As for `Cn1c(CCCCCCC(=O)NO)nc2cc(N(CCCl)CCCl)ccc21` [EDO-S101], the mitotic index entry in the assay with L540 is “very low mitotic index”. For the same compound, in assay [1], the half-maximal inhibitory concentration (IC50) was 1.6 to 6.3 µM. In addition, the “orbital tumour mass at site of injection” value with L428 cells [2] is on record as “signification regression”. In the assay with CD14 cells (60 mg/kg, 80 mg/kg, 2×60 mg/kg), the “frequency of CD14 cells, untreated versus treated mice” value is “significantly higher frequency of CD14 cells in untreated mice compared to treated mice”. Further, in the assay on CD14 cells (mouse, in vivo), the “frequency of CD14 cells, 2×60 mg/kg versus 80 mg/kg” value is on record as “higher frequency following treatment with 2×60 mg/kg than treatment with a single dose of 80 mg/kg”. The “metaphases and cell lines from cells of treated mice” value in the assay with L428 cells [3] was “not possible to obtain either metaphases from direct culture or establish cell lines”. Also, in the assay with L1236, the “cell death in combination with Brentuximab Vedotin” value is recorded as “synergistic”.

The record behind these values is patent publication US12440475B2, “Hodgkin lymphoma therapy” (priority 2016, dated 2025).
